Measurements: patent US9169205B2, “Pyrrolidine derivatives, pharmaceutical compositions and uses thereof” (Boehringer Ingelheim International GmbH, priority 2012, dated 2015)

Target: human ACC2 (Homo sapiens (Human), UniProt O00763)
Test: ACC2 assay (spectrophotometric 384 well assay, NADH-linked kinetic method)
Format: biochemical
Conditions: hACC2 construct lacking 128 N-terminal amino acids, 25° C., 340 nm
Protocol: Spectrophotometric 384 Well Assay
Malonyl CoA formation by acetyl CoA carboxylases is stoichometrically linked to the consumption of ATP. ACC2 activity is measured in a NADH-linked kinetic method measuring ADP generated during the ACC reaction using a coupled lactate dehydrogenase/pyruvate kinase reaction.
The protein is then expressed in insect cells using a baculoviral expression system. Protein purification is performed by anion exchange.
All compounds are dissolved in dimethyl sulfoxide (DMSO) to a concentration of 10 mM.
The enzymatic reaction is then started by addition of a mixture of NADH, acetyl Coenzyme A (both 200 μM f.c.) and ATP (500 uM f.c.). The decrease of the optical density (slope S) is then determined at 25° C. at a wavelength of 340 nm over 15 minutes in a spectrophotometric reader.
Each assay microtiter plate contains wells with vehicle instead of compound as controls for the non-inhibited enzyme (100% CTL; ‘HIGH’) and wells without acetyl-CoA as controls for non-specific NADH degradation (0% CTL; ‘LOW’).

Sequence of human ACC2 (O00763 129-2458): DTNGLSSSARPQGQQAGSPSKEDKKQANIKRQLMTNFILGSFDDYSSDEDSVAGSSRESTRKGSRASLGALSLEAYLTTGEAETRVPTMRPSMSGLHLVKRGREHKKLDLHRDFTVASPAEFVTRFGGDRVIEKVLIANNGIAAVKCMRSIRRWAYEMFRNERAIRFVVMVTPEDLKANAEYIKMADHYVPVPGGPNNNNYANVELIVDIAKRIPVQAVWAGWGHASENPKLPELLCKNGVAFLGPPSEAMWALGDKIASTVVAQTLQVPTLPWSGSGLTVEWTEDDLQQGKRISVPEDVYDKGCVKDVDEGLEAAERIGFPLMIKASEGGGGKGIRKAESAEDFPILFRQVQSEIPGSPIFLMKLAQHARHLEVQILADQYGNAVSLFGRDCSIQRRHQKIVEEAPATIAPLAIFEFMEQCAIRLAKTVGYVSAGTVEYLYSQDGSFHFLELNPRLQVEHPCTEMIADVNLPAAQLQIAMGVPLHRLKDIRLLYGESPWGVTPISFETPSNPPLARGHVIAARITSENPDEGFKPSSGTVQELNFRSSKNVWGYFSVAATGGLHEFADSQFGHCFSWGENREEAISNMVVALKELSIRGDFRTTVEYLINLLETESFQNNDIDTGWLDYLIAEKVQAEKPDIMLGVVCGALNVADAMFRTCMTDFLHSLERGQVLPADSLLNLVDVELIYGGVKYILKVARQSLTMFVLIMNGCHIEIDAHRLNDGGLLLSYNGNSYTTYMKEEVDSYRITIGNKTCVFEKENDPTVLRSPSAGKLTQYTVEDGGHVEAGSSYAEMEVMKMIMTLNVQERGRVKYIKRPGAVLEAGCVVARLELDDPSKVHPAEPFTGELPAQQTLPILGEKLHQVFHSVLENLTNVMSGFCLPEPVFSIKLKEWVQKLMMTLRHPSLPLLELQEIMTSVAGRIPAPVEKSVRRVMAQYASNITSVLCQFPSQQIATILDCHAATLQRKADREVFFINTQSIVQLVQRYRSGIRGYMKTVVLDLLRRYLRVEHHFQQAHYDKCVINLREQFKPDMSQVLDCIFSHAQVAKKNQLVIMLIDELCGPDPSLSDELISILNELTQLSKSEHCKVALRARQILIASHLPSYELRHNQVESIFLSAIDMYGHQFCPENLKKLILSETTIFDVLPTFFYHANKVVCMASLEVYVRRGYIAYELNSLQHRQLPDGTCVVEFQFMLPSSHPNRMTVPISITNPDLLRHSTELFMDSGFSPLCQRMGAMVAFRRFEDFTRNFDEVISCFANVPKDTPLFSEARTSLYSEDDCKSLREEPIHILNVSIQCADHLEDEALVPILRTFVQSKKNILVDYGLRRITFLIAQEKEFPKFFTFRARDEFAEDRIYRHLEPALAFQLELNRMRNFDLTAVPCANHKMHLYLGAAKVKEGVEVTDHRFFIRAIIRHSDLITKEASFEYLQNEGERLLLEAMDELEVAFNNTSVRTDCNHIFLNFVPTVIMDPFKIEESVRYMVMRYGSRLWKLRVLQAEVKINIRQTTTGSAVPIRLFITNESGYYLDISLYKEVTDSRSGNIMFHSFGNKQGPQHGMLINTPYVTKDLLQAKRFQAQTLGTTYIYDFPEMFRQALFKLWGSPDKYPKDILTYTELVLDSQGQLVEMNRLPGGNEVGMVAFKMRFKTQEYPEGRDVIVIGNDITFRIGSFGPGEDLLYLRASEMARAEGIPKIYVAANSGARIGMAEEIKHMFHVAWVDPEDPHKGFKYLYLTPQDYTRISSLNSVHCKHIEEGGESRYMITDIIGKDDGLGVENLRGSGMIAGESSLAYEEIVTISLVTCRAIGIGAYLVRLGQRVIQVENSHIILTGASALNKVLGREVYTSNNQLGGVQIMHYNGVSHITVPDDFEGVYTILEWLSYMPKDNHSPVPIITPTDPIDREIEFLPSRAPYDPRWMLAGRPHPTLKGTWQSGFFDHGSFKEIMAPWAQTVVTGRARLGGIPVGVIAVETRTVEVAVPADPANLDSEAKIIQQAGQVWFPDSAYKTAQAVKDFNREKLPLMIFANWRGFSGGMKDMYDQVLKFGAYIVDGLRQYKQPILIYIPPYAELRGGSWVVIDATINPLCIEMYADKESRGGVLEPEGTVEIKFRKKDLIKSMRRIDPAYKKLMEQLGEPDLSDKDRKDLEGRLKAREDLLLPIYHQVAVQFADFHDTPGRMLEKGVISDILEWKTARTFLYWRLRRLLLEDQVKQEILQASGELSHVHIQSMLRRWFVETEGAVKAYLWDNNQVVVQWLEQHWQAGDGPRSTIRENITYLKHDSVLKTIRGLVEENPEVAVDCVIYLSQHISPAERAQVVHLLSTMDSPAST

| IC50 [nM] | SMILES |
| --- | --- |
| 54 | CC(=O)N[C@@H](C)c1ccc(O[C@@H]2CCN(c3ccc(OCC4CC4)cc3)C2)cc1 [Example 1.1, N—((S)-1-(4-((R)-1-(4-(Cyclopropylmethoxy)phenyl)pyrrolidin-3-yloxy)phenyl)ethyl)-acetamide] |
| 198 | CCOc1ccc(N2CCC(Oc3ccc([C@H](C)NC(C)=O)cc3)C2)cc1 (some centres unmarked) [Example 1.2] |
| 263 | CCOc1ccc(N2CC[C@H](Oc3ccc([C@H](C)NC(C)=O)cc3)C2)cc1 [Example 1.3] |
| 514 | CCOc1cccc(N2CC[C@H](Oc3ccc([C@H](C)NC(C)=O)cc3)C2)c1 [Example 1.4] |
| 204 | CCOc1cccc(N2CC[C@@H](Oc3ccc([C@H](C)NC(C)=O)cc3)C2)c1 [Example 1.5] |
| 108 | CC(=O)N[C@@H](C)c1ccc(OC2CCN(c3ccc(OC4CC4)cc3)C2)cc1 (some centres unmarked) [Example 1.6] |
| 229 | CC(=O)N[C@@H](C)c1ccc(OC2CCN(c3ccc4c(c3)OCCO4)C2)cc1 (some centres unmarked) [Example 1.7] |
| 140 | CCCOc1ccc(N2CCC(Oc3ccc([C@H](C)NC(C)=O)cc3)C2)cc1 (some centres unmarked) [Example 1.8] |
| 1150 | CCCOc1ccc(N2CCC(Oc3ccc([C@H](C)NC(C)=O)cc3)C2)c(OC)c1 (some centres unmarked) [Example 1.9] |
| 230 | CC(=O)N[C@@H](C)c1ccc(OC2CCN(c3ccc(OCC4CC4)cc3F)C2)cc1 (some centres unmarked) [Example 1.10] |
| 226 | CC(=O)N[C@@H](C)c1ccc(O[C@@H]2CCN(c3cccc(OCC4CC4)c3)C2)cc1 [Example 1.11] |
| 899 | CC(=O)N[C@@H](C)c1ccc(OC2CCN(c3ccc(Cl)cc3)C2)cc1 (some centres unmarked) [Example 1.12] |
| 155 | CCCOc1ccc(N2CCC(Oc3ccc([C@H](C)NC(C)=O)cc3)C2)c(C#N)c1 (some centres unmarked) [Example 1.13] |
| 36 | CC(=O)N[C@@H](C)c1ccc(OC2CCN(c3ccc(OC4CCC4)cc3)C2)cc1 (some centres unmarked) [Example 1.14] |
| 214 | CC(=O)N[C@@H](C)c1ccc(OC2CCN(c3ccc(OC(C)C)cc3)C2)cc1 (some centres unmarked) [Example 1.15] |
| 25 | CC(=O)N[C@@H](C)c1ccc(OC2CCN(c3ccc(OCC4CC4(F)F)cc3)C2)cc1 (some centres unmarked) [Example 1.16] |
| 894 | CC(=O)N[C@@H](C)c1ccc(OC2CCN(c3ccc(OCC4CCOC4)cc3)C2)cc1 (some centres unmarked) [Example 1.17] |
| 214 | CC(=O)N[C@@H](C)c1ccc(OC2CCN(c3ccc4c(c3)OCC(C)(C)CO4)C2)cc1 (some centres unmarked) [Example 1.18] |
| 240 | CCOc1ccc(N2CCC(Oc3ccc([C@H](C)NC(C)=O)cc3)C2)c(F)c1 (some centres unmarked) [Example 1.19] |
| 2960 | CC(=O)N[C@@H](C)c1ccc(OC2CCN(c3cccc4c3OCCO4)C2)cc1 (some centres unmarked) [Example 1.20] |
| 573 | CC(=O)N[C@@H](C)c1ccc(OC2CCN(c3ccc(OCC4CCCO4)cc3)C2)cc1 (some centres unmarked) [Example 1.21] |
| 559 | COc1ccc(N2CCC(Oc3ccc([C@H](C)NC(C)=O)cc3)C2)c(F)c1 (some centres unmarked) [Example 1.22] |
| 84 | CC(=O)N[C@@H](C)c1ccc(OC2CCN(c3ccc4c(c3)OCCCO4)C2)cc1 (some centres unmarked) [Example 1.23] |
| 589 | COc1ccc(N2CCC(Oc3ccc([C@H](C)NC(C)=O)cc3)C2)cc1 (some centres unmarked) [Example 1.24] |
| 86 | CC(=O)N[C@@H](C)c1ccc(OC2CCN(c3ccc(OC4CC4)cc3C)C2)cc1 (some centres unmarked) [Example 1.25] |

| IC50 [nM] | SMILES |
| --- | --- |
| 397 | CC(=O)N[C@@H](C)c1ccc(OC2CCN(c3ccc4c(c3)CCO4)C2)cc1 (some centres unmarked) [Example 1.26] |
| 110 | CC(=O)N[C@@H](C)c1ccc(OC2CCN(c3cccc(C(F)(F)F)c3)C2)cc1 (some centres unmarked) [Example 1.27] |
| 672 | CC(=O)N[C@@H](C)c1ccc(OC2CCN(c3ccc(F)c(F)c3)C2)cc1 (some centres unmarked) [Example 1.28] |
| 60 | CCCOc1ccc(N2CCC(Oc3ccc([C@H](C)NC(C)=O)cc3)C2)c(Cl)c1 (some centres unmarked) [Example 1.29] |
| 174 | CC(=O)N[C@@H](C)c1ccc(OC2CCN(c3cc(C(F)(F)F)ccc3C)C2)cc1 (some centres unmarked) [Example 1.30] |
| 913 | CC(=O)N[C@@H](C)c1ccc(OC2CCN(c3cccc(F)c3C)C2)cc1 (some centres unmarked) [Example 1.31] |
| 538 | COc1ccc(N2CCC(Oc3ccc([C@H](C)NC(C)=O)cc3)C2)cc1C(F)(F)F (some centres unmarked) [Example 1.32] |
| 125 | CC(=O)N[C@@H](C)c1ccc(OC2CCN(c3ccc(C4CCC4)cc3)C2)cc1 (some centres unmarked) [Example 1.33] |
| 224 | CC(=O)N[C@@H](C)c1ccc(OC2CCN(c3ccc(F)c(C(F)(F)F)c3)C2)cc1 (some centres unmarked) [Example 1.34] |
| 899 | CC(=O)N[C@@H](C)c1ccc(OC2CCN(c3ccc(F)cc3F)C2)cc1 (some centres unmarked) [Example 1.35] |
| 97 | CC(=O)N[C@@H](C)c1ccc(OC2CCN(c3cc4c(cc3F)OCCCO4)C2)cc1 (some centres unmarked) [Example 1.36] |
| 484 | COCCCOc1ccc(N2CCC(Oc3ccc([C@H](C)NC(C)=O)cc3)C2)c(F)c1 (some centres unmarked) [Example 1.37] |
| 685 | COCCOc1ccc(N2CCC(Oc3ccc([C@H](C)NC(C)=O)cc3)C2)c(F)c1 (some centres unmarked) [Example 1.38] |
| 791 | CC(=O)N[C@@H](C)c1ccc(OC2CCN(c3ccc(C)cc3F)C2)cc1 (some centres unmarked) [Example 1.39] |
| 147 | CC(=O)N[C@@H](C)c1ccc(OC2CCN(c3ccc(OC4CC4)cc3F)C2)cc1 (some centres unmarked) [Example 1.40] |
| 45 | CC(=O)N[C@@H](C)c1ccc(OC2CCN(c3ccc(OCC4CC4(F)F)cc3F)C2)cc1 (some centres unmarked) [Example 1.41] |
| 589 | CC(=O)N[C@@H](C)c1ccc(OC2CCN(c3ccc(OC4CCOC4)cc3F)C2)cc1 (some centres unmarked) [Example 1.42] |
| 274 | COc1cc(OC2CC2)ccc1N1CCC(Oc2ccc([C@H](C)NC(C)=O)cc2)C1 (some centres unmarked) [Example 1.43] |
| 435 | CC(=O)N[C@@H](C)c1ccc(OC2CCN(c3ccccc3)C2)cc1 (some centres unmarked) [Example 1.44] |
| 108 | CO[C@H]1CN(c2ccc(OCC3CC3)cc2)CC1Oc1ccc([C@H](C)NC(C)=O)cc1 (some centres unmarked) [Example 1.45] |
| 226 | CC(=O)N[C@@H](C)c1ccc(OC2CCN(c3cc4c(cc3F)OCCO4)C2)cc1 (some centres unmarked) [Example 1.46] |
| 339 | CC(=O)N[C@@H](C)c1ccc(OC2CCN(c3ccc4c(c3F)OCCO4)C2)cc1 (some centres unmarked) [Example 1.47] |
| 180 | CC(=O)N[C@@H](C)c1ccc(O[C@H]2CCN(c3ccc(OCC4CC4)cc3)C2)cc1 [Example 1.48] |
| 775 | CC(=O)N[C@@H](C)c1ccc(O[C@H]2CCN(c3ccc(OC4CC4)cc3)C2)cc1 [Example 1.49] |
| 175 | CO[C@@H]1CN(c2ccc(OCC3CC3)cc2)CC1Oc1ccc([C@H](C)NC(C)=O)cc1 (some centres unmarked) [Example 1.51] |

| IC50 [nM] | SMILES |
| --- | --- |
| 599 | CC(=O)N[C@@H](C)c1ccc(OC2CCN(c3ccc(C)c(Cl)c3)C2)cc1 (some centres unmarked) [Example 1.52] |
| 204 | CC(=O)N[C@@H](C)c1ccc(OC2CCN(c3cccc(Cl)c3)C2)cc1 (some centres unmarked) [Example 1.53] |
| 300 | CC(=O)N[C@@H](C)c1ccc(OC2CCN(c3ccc(F)c(Cl)c3)C2)cc1 (some centres unmarked) [Example 1.54] |
| 214 | CC(=O)N[C@@H](C)c1ccc(OC2CCN(c3cccc(C)c3)C2)cc1 (some centres unmarked) [Example 1.55] |
| 298 | CC(=O)NC(C)c1ccc(OC2CCN(c3ccc(OCC4CC4)cc3)C2)nc1 (centres unmarked) [Example 1.56] |
| 443 | COc1cc(OCC2CC2(F)F)ccc1N1CCC(Oc2ccc([C@H](C)NC(C)=O)cc2)C1 (some centres unmarked) [Example 1.57] |
| 354 | CC(=O)N[C@@H](C)c1ccc(OC2CCN(c3cc(Cl)ccc3Cl)C2)cc1 (some centres unmarked) [Example 1.58] |
| 415 | CC(=O)N[C@@H](C)c1ccc(OC2CCN(c3cc(Cl)ccc3C)C2)cc1 (some centres unmarked) [Example 1.60] |
| 845 | CC(=O)N[C@@H](C)c1ccc(OC2CCN(c3cccc(OC(F)(F)F)c3)C2)cc1 (some centres unmarked) [Example 1.61] |
| 335 | CCOc1ccc(N2CCC(Oc3ccc([C@H](C)NC(C)=O)cc3)C2)c(F)c1F (some centres unmarked) [Example 1.62] |
| 108 | C[C@H](NC(=O)N(C)C)c1ccc(OC2CCN(c3ccc(OC4CC4)cc3)C2)cc1 (some centres unmarked) [Example 1.64] |
| 875 | CC(C)Oc1ccc(N2CCC(Oc3ccc([C@H](C)NC(=O)N(C)C)cc3)C2)cc1 (some centres unmarked) [Example 1.65] |
| 791 | CC(=O)N[C@@H](C)c1ccc(OC2CCN(c3ccc(Oc4ccncc4)cc3)C2)cc1 (some centres unmarked) [Example 1.66] |
| 566 | Cc1cc(OC2CC2)ccc1N1CCC(Oc2ccc([C@H](C)NC(=O)N(C)C)cc2)C1 (some centres unmarked) [Example 1.68] |
| 440 | CC(=O)N[C@@H](C)c1ccc(OC2CCN(c3ccc(Oc4cnccn4)cc3)C2)cc1 (some centres unmarked) [Example 1.69] |
| 53 | CC(=O)N[C@@H](C)c1ccc(OC2CCN(c3ccc(OCCCF)cc3)C2)cc1 (some centres unmarked) [Example 1.70] |
| 272 | CC(=O)N[C@@H](C)c1ccc(OC2CCN(c3ccc(OC4CCOC4)cc3)C2)cc1 (some centres unmarked) [Example 1.71] |
| 558 | CC(=O)N[C@@H](C)c1ccc(OC2CCN(c3ccc4c(c3F)OCO4)C2)cc1 (some centres unmarked) [Example 1.72] |
| 230 | CC(=O)N[C@@H](C)c1ccc(OC2CCN(c3ccc(OC4CC4)cc3C#N)C2)cc1 (some centres unmarked) [Example 1.73] |
| 1680 | CCOC1CN(c2ccc(OCC3CC3)cc2)CC1Oc1ccc([C@H](C)NC(C)=O)cc1 (some centres unmarked) [Example 1.74] |
| 709 | CC(=O)N[C@@H](C)c1ccc(OC2CCN(c3ccc4c(c3)COC4)C2)cc1 (some centres unmarked) [Example 1.75] |
| 749 | COCCOC1CN(c2ccc(OCC3CC3)cc2)CC1Oc1ccc([C@H](C)NC(C)=O)cc1 (some centres unmarked) [Example 1.77] |
| 546 | CC(=O)N[C@@H](C)c1ccc(OC2CCN(c3ccc(OCC(F)(F)F)cc3)C2)cc1 (some centres unmarked) [Example 1.78] |
| 496 | CC(=O)N[C@@H](C)c1ccc(OC2CCN(c3ccc(OC(F)F)cc3)C2)cc1 (some centres unmarked) [Example 1.79] |
